From patent US9150566B2, “2-(1,2,3-triazol-2-yl)benzamide and 3-(1,2,3-triazol-2-YL)picolinamide derivatives as orexin receptor antagonists” (ACTELION PHARMACEUTICALS LTD., priority 2011, dated 2015)
Like-named read-outs stand apart in the source and are kept apart here.

How the values were obtained:
humans = details: cited from earlier work
rat [1] = details: cited from earlier work
rats [2] = details: cited from earlier work
rat [3] = details: rat fear-potentiated startle paradigm; cited from earlier work
rats [4] = details: rats treated with the compound; cited from earlier work
[5] = test system: amyloid precursor protein transgenic mice; details: after acute sleep restriction, APP transgenic mice; cited from earlier work
mouse = mouse model of depression, administered chronically; cited from earlier work
fasted hungry rats = fasted hungry rats exposed to food odors; cited from earlier work
rat [6] = details: rat model; cited from earlier work
human orexin-1 receptor = human orexin-1 receptor (Homo sapiens (Human), UniProt O43613); assay: In vitro intracellular calcium measurements (FLIPR), antagonistic activity on orexin-1 receptor; assay type: cell-based
Chain of human orexin-1 receptor (O43613 whole entry): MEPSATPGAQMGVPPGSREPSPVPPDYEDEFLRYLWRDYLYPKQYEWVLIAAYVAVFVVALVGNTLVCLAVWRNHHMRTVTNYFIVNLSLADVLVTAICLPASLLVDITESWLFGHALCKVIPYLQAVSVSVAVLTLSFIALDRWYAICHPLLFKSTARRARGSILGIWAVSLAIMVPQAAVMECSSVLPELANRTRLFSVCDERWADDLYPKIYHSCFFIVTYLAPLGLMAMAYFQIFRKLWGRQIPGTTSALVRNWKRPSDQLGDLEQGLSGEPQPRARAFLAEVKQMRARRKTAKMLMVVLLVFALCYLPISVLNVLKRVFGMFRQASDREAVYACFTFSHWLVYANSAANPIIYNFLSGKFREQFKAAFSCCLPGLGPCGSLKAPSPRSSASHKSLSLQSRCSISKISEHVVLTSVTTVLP
How it was run: (§1)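 CHO cells expressing human orexin-1 or orexin-2 receptor were seeded overnight, preincubated with antagonist for 120 min, then stimulated with agonist in a FLIPR Tetra.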

human orexin-2 receptor = human orexin-2 receptor (Homo sapiens (Human), UniProt O43614); assay: In vitro intracellular calcium measurements (FLIPR), antagonistic activity on orexin-2 receptor; assay type: cell-based; details: read-out: IC50 OX2
Chain of human orexin-2 receptor (O43614 whole entry): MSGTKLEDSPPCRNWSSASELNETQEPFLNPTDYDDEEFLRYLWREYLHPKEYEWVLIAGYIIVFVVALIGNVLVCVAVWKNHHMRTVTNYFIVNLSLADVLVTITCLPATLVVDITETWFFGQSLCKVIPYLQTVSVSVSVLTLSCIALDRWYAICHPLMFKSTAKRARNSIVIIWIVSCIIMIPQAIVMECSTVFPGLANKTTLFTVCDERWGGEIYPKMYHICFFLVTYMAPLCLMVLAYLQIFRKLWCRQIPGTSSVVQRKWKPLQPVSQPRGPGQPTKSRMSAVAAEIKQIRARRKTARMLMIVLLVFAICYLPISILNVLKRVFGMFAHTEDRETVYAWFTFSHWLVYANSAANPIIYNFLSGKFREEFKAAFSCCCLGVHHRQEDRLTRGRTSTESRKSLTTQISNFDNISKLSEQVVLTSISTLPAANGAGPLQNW
How it was run: as §1

[7] = Measurement of brain and systemic concentration after oral administration; assay type: in vivo; details: rat, brain, male wistar rats, oral 100 mg/kg, read-out: brain concentration [B]; for concentration at 3 h: formulated in 100% PEG400, sampled at 3 h; for concentration at 1 h: formulated in 10% PEG400/90% MC0.5%, sampled at 1 h
Protocol: Measurement of Brain and Systemic Concentration after Oral Administration:
In order to assess brain penetration, the concentration of the compound is measured in plasma ([P]), and brain ([B]), sampled 1 h or 3 h (or at different time points) following oral administration (100 mg/kg) to male wistar rats (n=3). The compounds are formulated either in 100% PEG 400 or 10% PEG400/90% MC0.5%. Samples are collected in the same animal at the same time point (+/−5 min). Blood is sampled from the vena cava caudalis into containers with EDTA as anticoagulant and centrifuged to yield plasma. Brain is sampled after cardiac perfusion of 10 mL NaCl 0.9% and homogenized into one volume of cold phosphate buffer (pH 7.4). All samples are extracted with MeOH and analyzed by LC-MS/MS. Concentrations are determined with the help of calibration curves. Inter-individual variations between the three rats were limited. Particular compounds of the present invention tested as described above gave brain concentrations ([B]) as shown in Table 16 below; wherein the compounds of Examples 11-37 and 94 were formulated in 100% PEG400 and sampled at 3 h. All other examples below were formulated in 10% PEG400/90% MC0.5% and sampled at 1 h.

CYP3A4 = CYP3A4 (Homo sapiens (Human), UniProt P08684); assay: CYP3A4 inhibition assay (human liver microsomes, testosterone 6β-hydroxylation); details: read-out: CYP3A4 IC50, 40 μM testosterone
Chain of CYP3A4 (P08684 whole entry): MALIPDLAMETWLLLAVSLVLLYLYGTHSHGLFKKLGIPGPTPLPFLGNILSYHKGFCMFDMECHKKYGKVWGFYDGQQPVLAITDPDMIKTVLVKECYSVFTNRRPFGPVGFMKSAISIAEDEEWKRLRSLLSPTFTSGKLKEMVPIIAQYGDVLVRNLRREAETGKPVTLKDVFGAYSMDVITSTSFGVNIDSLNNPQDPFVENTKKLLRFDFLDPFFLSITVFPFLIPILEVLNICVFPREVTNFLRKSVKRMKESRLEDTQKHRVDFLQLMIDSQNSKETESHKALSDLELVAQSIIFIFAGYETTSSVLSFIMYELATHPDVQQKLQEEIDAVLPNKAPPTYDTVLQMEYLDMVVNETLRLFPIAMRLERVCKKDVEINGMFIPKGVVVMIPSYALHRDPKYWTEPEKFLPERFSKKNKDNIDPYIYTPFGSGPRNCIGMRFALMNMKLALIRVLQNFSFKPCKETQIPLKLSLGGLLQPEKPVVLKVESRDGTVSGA

rodents = details: cited from earlier work
[8] = CHO cells expressing human orexin-1 receptor, FLIPR, 3 nM orexin-A agonist, 120 min antagonist incubation, geometric mean if determined several times, read-out: IC50 OX1
[9] = CHO cells expressing human orexin-2 receptor, FLIPR, 3 nM orexin-A agonist, 120 min antagonist incubation, geometric mean if determined several times

SMILES	IC50 (human orexin-1 receptor; [8]) [nM]	IC50 (human orexin-2 receptor; [9]) [nM]	IC50 (CYP3A4) [µM]	concentration at 1 h [7] [ng/g]	also measured
CNC(=O)[C@@H](c1ccccc1)N1CCc2cc(OC)c(OC)cc2[C@@H]1CCc1ccc(C(F)(F)F)cc1 [(2R)-2-{(1S)-6,7-dimethoxy-1-[2-(4-trifluoromethyl-phenyl)-ethyl]-3,4-dihydro-1H-isoquinolin-2-yl}-N-methyl-2-phenyl-acetamide]	–	–	–	–	clinical efficacy, primary insomnia (humans): showed clinical efficacy; alertness (active wake and locomotion) (rat [1]): decrease alertness; time spent in REM and NREM sleep (rat [1]): dose-dependently increase the time spent in both REM and NREM sleep; cardiovascular responses to conditioned fear and novelty exposure (rats [2]): attenuated cardiovascular responses to conditioned fear and novelty exposure; activity in animal model of conditioned fear (rat [3]): active; learning and memory (rats [4]): intact declarative and non-declarative learning and memory; brain levels of amyloid-beta and plaque deposition [5]: decreased brain levels of amyloid-beta (Aβ) as well as AO plaque deposition; antidepressant-like activity (mouse): induce antidepressant-like activity; natural activation induced by orexin A (fasted hungry rats): attenuate the natural activation induced by orexin A; pharmacological activity, nicotine self-administration (rat [6]): displayed pharmacological activity
O=C(c1cc(Cl)ccc1-n1nccn1)N1CCOC[C@H]1Cc1cccc(-n2nccn2)c1 [Example 30, (5-Chloro-2-[1,2,3]triazol-2-yl-phenyl)-[(R)-3-(3-[1,2,3]triazol-2-yl-benzyl)-morpholin-4-yl]-methanone]	4	199	17	–	concentration at 3 h [7]: 1870 ng/g
Cc1cc(C(=O)N2CCOC[C@H]2Cc2cccc(-n3nccn3)c2)c(-n2nccn2)cc1C [Example 35, (4,5-Dimethyl-2-[1,2,3]triazol-2-yl-phenyl)-[(R)-3-(3-[1,2,3]triazol-2-yl-benzyl)-morpholin-4-yl]-methanone]	1	25	20	–	concentration at 3 h [7]: 59 ng/g
COc1cc(C(=O)N2CCOC[C@H]2Cc2cccc(-n3nccn3)c2)c(-n2nccn2)cc1C [Example 37, (5-Methoxy-4-methyl-2-[1,2,3]triazol-2-yl-phenyl)-[(R)-3-(3-[1,2,3]triazol-2-yl-benzyl)-morpholin-4-yl]-methanone]	4	209	17	–	concentration at 3 h [7]: 881 ng/g
Cc1cccc(C(=O)N2CCOC[C@H]2Cc2cccc(-n3nccn3)c2)c1-n1nccn1 [Example 64, (3-Methyl-2-[1,2,3]triazol-2-yl-phenyl)-[(R)-3-(3-[1,2,3]triazol-2-yl-benzyl)-morpholin-4-yl]-methanone]	–	784	33	2370	IC50 (human orexin-1 receptor): 6 nM
O=C(c1ccc(C(F)(F)F)cc1-n1nccn1)N1CCOC[C@H]1Cc1cccc(-n2nccn2)c1 [Example 76, [(R)-3-(3-[1,2,3]Triazol-2-yl-benzyl)-morpholin-4-yl]-(2-[1,2,3]triazol-2-yl-4-trifluoromethyl-phenyl)-methanone]	2	133	7.5	1380	–
O=C(c1ccc(Cl)cc1-n1nccn1)N1CCOC[C@H]1Cc1cccc(-n2nccn2)c1 [Example 77, (4-Chloro-2-[1,2,3]triazol-2-yl-phenyl)-[(R)-3-(3-[1,2,3]triazol-2-yl-benzyl)-morpholin-4-yl]-methanone]	1	96	16	1610	–
Cc1ccc(C(=O)N2CCOC[C@H]2Cc2cccc(-n3nccn3)c2)c(-n2nccn2)c1C [Example 92, (3,4-Dimethyl-2-[1,2,3]triazol-2-yl-phenyl)-[(R)-3-(3-[1,2,3]triazol-2-yl-benzyl)-morpholin-4-yl]-methanone]	–	–	44	1970	IC50 (human orexin-1 receptor; read-out: IC50 OX1): 3 nM; IC50 (human orexin-2 receptor): 2630 nM
Cc1ccc(C(=O)N2CCOC[C@H]2Cc2cc(-n3nccn3)ccc2F)c(-n2nccn2)c1C [Example 94, (3,4-Dimethyl-2-[1,2,3]triazol-2-yl-phenyl)-[(R)-3-(2-fluoro-5-[1,2,3]triazol-2-yl-benzyl)-morpholin-4-yl]-methanone]	6	3580	30	–	concentration at 3 h [7]: 654 ng/g
C[C@@H]1CN(C(=O)c2ccccc2-n2nccn2)[C@H](Cc2cccc(-n3nccn3)c2)CO1 [Example 100, [(2R,5R)-2-Methyl-5-(3-[1,2,3]triazol-2-yl-benzyl)-morpholin-4-yl]-(2-[1,2,3]triazol-2-yl-phenyl)-methanone]	6	289	13	529	–
C[C@@H]1CN(C(=O)c2ccccc2-n2nccn2)[C@H](Cc2cc(-n3nccn3)ccc2F)CO1 [Example 116, [(2R,5R)-5-(2-Fluoro-5-[1,2,3]triazol-2-yl-benzyl)-2-methyl-morpholin-4-yl]-(2-[1,2,3]triazol-2-yl-phenyl)-methanone]	21	899	21	5930	–
Cc1ccc(C(=O)N2CCOC[C@H]2Cc2cc(-n3nccn3)ccc2Cl)c(-n2nccn2)c1 [Example 120, [(R)-3-(2-Chloro-5-[1,2,3]triazol-2-yl-benzyl)-morpholin-4-yl]-(4-methyl-2-[1,2,3]triazol-2-yl-phenyl)-methanone]	–	–	19	5130	IC50 (human orexin-1 receptor; read-out: IC50 OX1): 3 nM; IC50 (human orexin-2 receptor): 531 nM
O=C(c1ccc(Cl)cc1-n1nccn1)N1CCOC[C@H]1Cc1cc(-n2nccn2)ccc1F [Example 130, (4-Chloro-2-[1,2,3]triazol-2-yl-phenyl)-[(R)-3-(2-fluoro-5-[1,2,3]triazol-2-yl-benzyl)-morpholin-4-yl]-methanone]	3	191	20	5830	–
Cn1c(SCC(=O)N2CCC[C@H]2C(=O)Nc2ccccc2-c2ccccc2)nc2ccccc21 [N-biphenyl-2-yl-1-{[(1-methyl-1H-benzimidazol-2-yl)sulfanyl]acetyl}-L-prolinamide]	–	–	–	–	behavioral and molecular changes induced by repeated amphetamine administration (rodents): reduced behavioral (locomotor sensitization) and molecular (transcriptional responses) changes induced by repeated amphetamine administration; nicotine-reinstatement for a conditioned reinforcer (rodents): inhibited nicotine-reinstatement for a conditioned reinforcer
